# Assay results from ChEMBL document CHEMBL3507680, “University of Dundee, Gates Library screen for HepG2 cell viability”.
# Experiment: Human HepG2 cell viability assay in 384 well format
# Type: toxicity, cell-based
# Design: dose 125 nL, time 70.5 hour; concentration not given beside the values
# Conditions: HepG2 cells, read-out: Inhibition
row,SMILES,cytotoxicity at 70.5 h
1,Cc1ccc(C(=O)N2[C@@H]3CC[C@H]2CN(C)C(=O)C3)c(=O)[nH]1,-8.22%
2,O=C(Cn1ccc2ccc(F)cc21)NCc1ccc(C(=O)O)cc1,18%
3,COc1nn(C)c2c1CCCN(S(=O)(=O)c1cccs1)C2,12.6%
4,O=C(c1cscn1)N1CC[C@H]2C[C@H](c3nnc(C4CC4)o3)O[C@@H]2C1,-10.6%
5,CS(=O)(=O)N1CCc2sc(C(=O)NCc3ccncc3)cc21,-7.65%
6,CC(=O)c1c(C)nn(CC(=O)Nc2ccc(Br)cc2)c1C,4.72%
7,O=C1NC2(CCN(C(=O)CN3CCOCC3)CC2)Nc2ccc(Cl)cc21,-2.29%
8,Cc1ccnc(OC[C@]23COC[C@H]2CN(C(=O)c2ncccn2)C3)n1,21.2%
9,Cc1cccc(CN2CCc3c(nc(N4CCC(C)CC4)[nH]c3=O)C2)n1,-9.37%
10,O=C(NCC(O)C1CC1)Nc1cnn(Cc2ccccc2)c1 (stereo not drawn),-7.29%
11,Cn1nc2c(cc1=O)CN(CCCOc1ccc(C#N)cc1)CC2,-5.17%
12,COc1ncc(C(=O)N2CCC(c3nc(C)n4ccsc34)CC2)cn1,24.2%
13,CCN1CCC(CC(=O)N(C)CC(=O)c2ccc(O)cc2)CC1,-8.66%
14,O=C(Cn1cccnc1=O)NCCc1ccc2c(c1)OCCO2,5.28%
15,CCOC1CC2(CCN(C(=O)Cc3ccccn3)CC2)C1,18.1%
16,CN(C)CCCNC(=O)c1nc(Cc2c(Cl)cccc2Cl)no1,15.3%
17,Cc1ccnc(N2CCN(C3CCS(=O)(=O)C3)CC2)n1 (stereo not drawn),-13.6%
18,O=C(NCC1(N2CCOCC2)CCSC1)Nc1ccccn1 (stereo not drawn),-9.14%
19,CC(C)(C)C(=O)N1CCCc2c(cnn2-c2ccccc2)C1,1.62%
20,Cc1cc(-c2cnc(NCc3cccnc3)nc2C(C)C)on1,-25.7%
21,O=C1NCCCCC1NC(=O)N1CCCc2ccccc21 (stereo not drawn),-12.7%
22,O=C(O)c1cccc(C2CCCN(S(=O)(=O)N3CCOCC3)C2)c1 (stereo not drawn),-7.39%
23,Cc1cccc2[nH]c(C3CCCN3Cc3ccc(CO)o3)nc12 (stereo not drawn),-9.7%

row,SMILES,cytotoxicity at 70.5 h
1,CCc1cnc(C)nc1NC(CC)c1ncnn1CC (stereo not drawn),-5.6%
2,CCCN1CCCC2(CCN(Cc3noc(C4CCCC4)n3)C2)C1=O (stereo not drawn),3.33%
3,CC(C)c1ccc(OCCC(=O)N2CCCN(C(N)=O)CC2)cc1,-1.87%
4,COCCCN1C(=O)CC[C@H]2CN(c3nc4ccccc4s3)CC[C@H]21,-3.23%
5,COc1ccc(NC(=O)CCc2c(C)nc3cc(O)nn3c2C)cn1,-2.2%
6,C[C@@H]1CN(c2cc(N3CCC(O)CC3)ncn2)C[C@@]1(O)C1CCC1,35.1%
7,Cc1noc(CNC(=O)CN(C)c2nc3c(C)ccc(C)c3s2)n1,12.2%
8,Cc1c(C(=O)NCC2CCS(=O)(=O)C2)cnn1-c1ccccc1 (stereo not drawn),-1.52%
9,CC(C)CC(NC(=O)c1ccco1)c1nnc2ccccn12 (stereo not drawn),-24.3%
10,CN1CCN(Cc2cccnc2)C2(CCN(Cc3ccccn3)C2)C1=O (stereo not drawn),-7.04%
11,CCOC(=O)c1sc(NC(=O)COC)c(C#N)c1C,28.6%
12,CN(C)C(=O)CCS(=O)(=O)Cc1coc(-c2ccc(F)cc2)n1,-16.4%
13,Cc1ccsc1-c1cc(C(=O)O)cc(S(=O)(=O)NCc2ccccn2)c1,-9.5%
14,CN(Cc1ccccc1)C(=O)CCS(=O)(=O)c1ccc2c(c1)OCCO2,-62.4%
15,C[C@@H]1C[C@@H]2CCN(C(=O)c3ccncn3)C[C@H]2O1,-7.65%
16,CN1N=C(C(=O)NCCc2csc(-c3ccccc3)n2)CCC1=O,-4.18%
17,OC(CN1CCC(c2ccn[nH]2)CC1)c1cc(F)ccc1F (stereo not drawn),-1.27%
18,CCNc1ncc(CN2C[C@@H](CN3CCC(CO)CC3)[C@@H](CO)C2)cn1,-2.73%
19,CNc1nc(N2CCN(C)C(CCO)C2)nc2c1CCC2 (stereo not drawn),2.44%
20,CN1CCCNC(=O)C12CCN(C(=O)c1ccc3[nH]cnc3c1)CC2,-3.14%
21,Cc1ccc(Cl)cc1N1CCC(CNC(=O)Cn2cccn2)C1 (stereo not drawn),5.6%
22,Cc1nc(C)c(C(=O)N(C)Cc2cnn(C)c2)s1,1.01%
23,COCCN1CCC(NC(=O)NCC2(c3ccccc3)CC2)C1 (stereo not drawn),-9.2%

row,SMILES,cytotoxicity at 70.5 h
1,CCN1C(=O)CCC12CCN(S(=O)(=O)c1ccccc1)CC2,-4.14%
2,CCC[C@H]1CN(S(C)(=O)=O)C[C@@H]1NC(=O)CCOCC,-2.88%
3,CCOc1ccccc1-c1noc(CN2CCOC(CN(C)C)C2)n1 (stereo not drawn),-10.8%
4,Cc1ncc(COc2ccc(N(C)S(C)(=O)=O)cc2)s1,3.82%
5,CN(C)c1nc(N)nc(CN2CCC(c3ccccc3)CC2)n1,-10.6%
6,CS(=O)(=O)c1cccc(S(=O)(=O)NC(=O)CC2CCCCC2)c1,-4.36%
7,OCC1CCCN(c2ncnc3c2Cc2ccccc2OC3)C1 (stereo not drawn),-5.22%
8,CC(C)n1cc(CN2CCCN(C(=O)C(C)n3cncn3)CC2)cn1 (stereo not drawn),3.68%
9,CC(C)C(=O)N1CCC2(CCCN(CCOc3ccccc3)C2)C1 (stereo not drawn),-8.26%
10,COCc1noc(-c2ccc(N3CCCCC3COC)nc2)n1 (stereo not drawn),-11.8%
11,CN1CCN(C(=O)c2cccn2C)c2ccccc2C1,-6.26%
12,OC1CCCOC12CCN(Cc1nnc(-c3cccnc3)o1)CC2 (stereo not drawn),0.216%
13,CS(=O)(=O)N1CCOC2(CCN(c3ncccn3)CC2)c2ccccc21,-1.05%
14,CC(C)N1CC(C(=O)NCCc2csc(-c3ccncc3)n2)CC1=O (stereo not drawn),34.8%
15,Cc1ccc(CN2CCc3c(C(=O)N(C)C)n[nH]c3C2)o1,-8.34%
16,CN1C(=O)C2(CCCN(C(=O)c3ccc(=O)n(C)n3)C2)c2ccccc21 (stereo not drawn),0.808%
17,Cn1[nH]c(C2CC2)c(-c2ccc3c(c2)OCO3)c1=N,8.3%
18,CC(C)c1nc(C2CCCN(C(=O)CCCn3ccnc3)C2)no1 (stereo not drawn),-0.752%
19,CC(C)(C)c1ccc(C2(C(=O)NCCS(N)(=O)=O)CC2)cc1,-9.31%
20,CN1C[C@H](NC(=O)c2cscn2)[C@@H]2OCCC[C@@H]21,-6.86%
21,Cn1c(C2CC2)nc2c1CCN(CC(=O)Nc1nncs1)C2,-18.2%
22,O=C1c2cccnc2OC(CN2CCOCC2)CN1CC1CC1 (stereo not drawn),-1.18%
23,CN1CCN(c2ncccc2N)CC1,-11.7%

row,SMILES,cytotoxicity at 70.5 h
1,Cc1nc2ccccc2c(=O)n1Cc1nnnn1C1CC1,1.18%
2,CCn1c(N)nc2cc(C(=O)N3Cc4ccccc4C3)cnc21,-4.1%
3,CC(=O)N1CCCN(C(=O)NCc2cccnc2OC(C)C)CC1,-5.61%
4,Cc1ccc(CC(=O)NCCCNS(C)(=O)=O)cc1,1.07%
5,COCC1CN(Cc2csc(C)n2)Cc2nccn2C1 (stereo not drawn),2.98%
6,Cc1ccnc(C2(C)CCCN2S(=O)(=O)c2cccnc2)n1 (stereo not drawn),-3.08%
7,O=C(CCc1ccncc1)NCCOc1ncc(Cl)cc1Cl,-6.13%
8,CCCc1n[nH]c(C2CN(CCCS(C)(=O)=O)CCO2)n1 (stereo not drawn),-4.54%
9,CN(C)C(=O)CN1CCC2(CCCN(Cc3cccnc3)C2)C1=O (stereo not drawn),-12%
10,Cc1cnn(CC(=O)N2CCC(c3ccn4nccc4n3)CC2)c1,-2.27%
11,O=c1[nH][nH]cc1-c1ccnc(NCCc2cccc(O)c2)n1,-7.19%
12,Cc1ccnc(CC(C)N(C)Cc2ccc3c(c2)CCO3)c1 (stereo not drawn),-5.48%
13,CC(Cn1cccn1)NCc1csc(COc2ccc(F)cc2)n1 (stereo not drawn),-1.54%
14,Cc1nsc(N2CCN(C(=O)Nc3cccc(C#N)c3)CC2)n1,-0.0722%
15,O=C(Nc1ccc2c(c1)OC1(CCCCC1)O2)c1ccc(=O)[nH]n1,0.889%
16,Cc1ccc(NC(=O)C2CSCN2C(=O)c2cccnc2)c(C)c1 (stereo not drawn),6.06%
17,CCOc1cccc(C(=O)N2CCN(c3nccc(OC)n3)CC2)c1,23.4%
18,O=c1[nH]c(-c2ccncc2)ncc1-c1ccnc(NC2CC2)n1,23.6%
19,COCCc1noc(CN2CCCCC2Cn2cc(C)cn2)n1 (stereo not drawn),-11.7%
20,CC(C(=O)Nc1cccc(C(F)(F)F)c1)N(C)CCN1CCOCC1 (stereo not drawn),-8.82%
21,CC(C)S(=O)(=O)N1CCOC(CCc2ccccc2)C1 (stereo not drawn),-8.39%
22,CCOc1cc(C(=O)N2CCCC(c3nc(C)c(C)s3)C2)ccn1 (stereo not drawn),3.48%
23,Cn1ccnc1C(=O)NC[C@@H]1OC[C@H]2CN(S(C)(=O)=O)CC[C@H]21,-5.19%

row,SMILES,cytotoxicity at 70.5 h
1,CN(C)S(=O)(=O)Nc1ccc(-n2nccc2C(F)(F)F)cc1,6.87%
2,CC(C(=O)NN1CCOCC1)n1nc(C(F)(F)F)c(Cl)c1C1CC1 (stereo not drawn),6.2%
3,COC(=O)CC1CCN(C(=O)Nc2ccc(-c3ccn[nH]3)cc2)C1 (stereo not drawn),1.65%
4,Cc1occc1CNC(=O)C1CCN(C(=O)OC(C)(C)C)C1 (stereo not drawn),-0.732%
5,CC(C)(C)c1nc(CN2CCCC(Cn3cncn3)C2)cs1 (stereo not drawn),25.2%
6,CCCc1n[nH]c(C2CN(C(=O)c3ccc4c(c3)COC4)CCO2)n1 (stereo not drawn),-4.22%
7,CN1CC(=O)N(c2ccccc2)CC12CCN(CCO)C2 (stereo not drawn),6.4%
8,CC(C)(C)CC(=O)NCCn1ccc(-c2ccncc2)n1,-15.2%
9,CC(C)COCC(NC(=O)c1cnccn1)c1ccco1 (stereo not drawn),-10.5%
10,CN(CC1CCCC1)C(=O)c1cn(C)nc1-c1cccnc1,-3.43%
11,O=C(NCc1ccc(-n2cncn2)nc1)c1ccc2c(c1)CCO2,-10.1%
12,CCc1nnc(Nc2cccc(C3CCN(c4cnccn4)CC3)n2)s1,14.7%
13,CN(Cc1ccccc1)C(=O)CN1CCCC1c1cnn(C)c1 (stereo not drawn),-10.2%
14,CC(C(=O)Nc1ccnn1C(C)C)N1CCN(Cc2ccon2)CC1 (stereo not drawn),1.23%
15,O=C(c1cnccn1)N1CCC2(CC1)C(=O)NCC2c1ccccc1 (stereo not drawn),-6.72%
16,c1cc(CCN2CCCC2CN2CCCCC2)ccn1 (stereo not drawn),25.4%
17,Cc1cccnc1CN1CC[C@@](C)(O)[C@H](Oc2ccccc2)C1,-7.26%
18,Cc1noc(CCCC(=O)Nc2cc(C(F)(F)F)c[nH]c2=O)n1,-3.91%
19,COC(=O)c1ccc(NC2CCN(CC(F)(F)F)C2=O)cc1C (stereo not drawn),26.2%
20,CCc1nc(C2CCCN2C(=O)CCCn2cncn2)no1 (stereo not drawn),-8.49%
21,CC(NCCCN1CCCC1=O)c1cc(Br)ccc1F (stereo not drawn),-5.24%
